Laboratory results published in the supplement of paper PMC11451515.

Tested on: P12-Ichikawa
Experiment: cell viability relative to DMSO control; higher = less cytotoxic
Details: 48 h
Outline: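 Cells were incubated for 48 h at 37°C before CellTiter-Glo One luminescence was read. The cells were NOMO1 or SEM (500 cells/well) or P12-Ichikawa (1000 cells/well) leukemia cells, adapted for at least four passages in each medium and seeded in 1536-well plates (5 μl). Dosing used library compounds in DMSO applied by pin over 11 threefold points, 47 μM to 0.79 nM. Viability is the per-plate percentage of DMSO wells, with cell-free wells as background.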

[1] = HPLM + 10% dialyzed FBS, 0.000781 µM
[2] = HPLM + 10% dialyzed FBS, 0.00234 µM
[3] = HPLM + 10% dialyzed FBS, 0.00702 µM
[4] = HPLM + 10% dialyzed FBS, 0.0211 µM
[5] = HPLM + 10% dialyzed FBS, 0.0632 µM
[6] = HPLM + 10% dialyzed FBS, 0.19 µM
[7] = HPLM + 10% dialyzed FBS, 0.569 µM
[8] = HPLM + 10% dialyzed FBS, 1.71 µM
[9] = HPLM + 10% dialyzed FBS, 5.12 µM
[10] = HPLM + 10% dialyzed FBS, 15.4 µM
[11] = HPLM + 10% dialyzed FBS, 46.1 µM
[12] = RPMI 5 mM glucose + 10% FBS, 0.000781 µM
[13] = RPMI 5 mM glucose + 10% FBS, 0.00234 µM
[14] = RPMI 5 mM glucose + 10% FBS, 0.00702 µM
[15] = RPMI 5 mM glucose + 10% FBS, 0.0211 µM
[16] = RPMI 5 mM glucose + 10% FBS, 0.0632 µM
[17] = RPMI 5 mM glucose + 10% FBS, 0.19 µM
[18] = RPMI 5 mM glucose + 10% FBS, 0.569 µM
[19] = RPMI 5 mM glucose + 10% FBS, 1.71 µM
[20] = RPMI 5 mM glucose + 10% FBS, 5.12 µM
[21] = RPMI 5 mM glucose + 10% FBS, 15.4 µM
[22] = RPMI 5 mM glucose + 10% FBS, 46.1 µM
[23] = RPMI 5 mM glucose + 10% dialyzed FBS, 0.000781 µM
[24] = RPMI 5 mM glucose + 10% dialyzed FBS, 0.00234 µM
[25] = RPMI 5 mM glucose + 10% dialyzed FBS, 0.00702 µM
[26] = RPMI 5 mM glucose + 10% dialyzed FBS, 0.0211 µM
[27] = RPMI 5 mM glucose + 10% dialyzed FBS, 0.0632 µM
[28] = RPMI 5 mM glucose + 10% dialyzed FBS, 0.19 µM
[29] = RPMI 5 mM glucose + 10% dialyzed FBS, 0.569 µM
[30] = RPMI 5 mM glucose + 10% dialyzed FBS, 1.71 µM
[31] = RPMI 5 mM glucose + 10% dialyzed FBS, 5.12 µM
[32] = RPMI 5 mM glucose + 10% dialyzed FBS, 15.4 µM
[33] = RPMI 5 mM glucose + 10% dialyzed FBS, 46.1 µM

SMILES | cell viability [1] [%] | cell viability [2] [%] | cell viability [3] [%] | cell viability [4] [%] | cell viability [5] [%] | cell viability [6] [%] | cell viability [7] [%] | cell viability [8] [%] | cell viability [9] [%] | cell viability [10] [%] | cell viability [11] [%] | cell viability [12] [%] | cell viability [13] [%] | cell viability [14] [%] | cell viability [15] [%] | cell viability [16] [%] | cell viability [17] [%] | cell viability [18] [%] | cell viability [19] [%] | cell viability [20] [%] | cell viability [21] [%] | cell viability [22] [%] | cell viability [23] [%] | cell viability [24] [%] | cell viability [25] [%] | cell viability [26] [%] | cell viability [27] [%] | cell viability [28] [%] | cell viability [29] [%] | cell viability [30] [%] | cell viability [31] [%] | cell viability [32] [%] | cell viability [33] [%]
COc1ccc(CC2NCCc3cc(OC)c(OC)cc32)cc1OC (configuration not stated) | 88.9 | 96.3 | 98.2 | 99.8 | 95 | 98.9 | 97.4 | 95.5 | 94 | 94 | 96.7 | 85.5 | 88.7 | 89 | 87.1 | 83.2 | 86 | 90.9 | 89.2 | 82.3 | 92.2 | 84.8 | 95 | 92.9 | 86.7 | 87.9 | 82.1 | 92.4 | 85.3 | 88.2 | 87.8 | 91.3 | 82.4
CC(C)[C@@H](N(CCCN)C(=O)C1=CC=C(C)C=C1)C/2=N/C3=CC(=CC=C3C(=O)N2CC4=CC=CC=C4)Cl | 97.6 | 12 | 10.4 | 8.9 | 8.1 | 8.2 | 5.86 | 7.66 | 5.88 | 7.47 | 8.59 | 96.2 | 12.6 | 10.8 | 11.7 | 9.51 | 12 | 8.85 | 8.68 | 7.23 | 7.78 | 7.67 | 88.8 | 48.5 | 18.6 | 14.5 | 12.8 | 13.4 | 11.1 | 14.6 | 11.3 | 11.3 | 10.9
CC/C(=C(/c1ccc(O)cc1)c1ccc(OCCNC)cc1)c1ccccc1 | 105 | 108 | 110 | 115 | 118 | 94.8 | 104 | 106 | 71.9 | 63 | 68.6 | 116 | 108 | 109 | 108 | 114 | 122 | 113 | 107 | 68.3 | 53.7 | 42 | 115 | 116 | 116 | 117 | 120 | 126 | 119 | 101 | 64.7 | 49.4 | 46.5
Cc1ccccc1C(C(=O)NC1CCCCC1)N(C(=O)Cn1ccnc1C)c1cccc(F)c1 (configuration not stated) | 117 | 114 | 115 | 105 | 105 | 104 | 109 | 104 | 104 | 102 | 102 | 100 | 113 | 105 | 106 | 105 | 101 | 103 | 102 | 93.1 | 102 | 97.1 | 96.2 | 103 | 104 | 104 | 102 | 100 | 98.7 | 97.9 | 95.2 | 93.1 | 97.3
